Test results taken from US20060292213A1, “Enoximone formulations and their use in the treatment of PDE-III mediated diseases” (Myogen, Inc., priority 2004, published 2006).
≈ marks a conversion by molar mass, not a printed value. Where two headings read alike, the source gives them in different places.

Legend:
[1] = system: patients with primary thrombocythemia and thrombocytosis; conditions: used to lower platelet counts; cited from earlier work
men who suffer from ED = conditions: ED of psychogenic or organic etiology; cited from earlier work
PDE-III = conditions: cited from earlier work
[2] = system: spontaneously hypertensive rats; experiment: Anti-hypertensive activity, cannulated conscious female spontaneously hypertensive rats (Example 1); format: in vivo, rat; conditions: 45 and 60 minute time points, 100 mg/kg and 30 mg/kg groups; statistically significant
Protocol: Female spontaneously hypertensive rats were anesthetized and cannulated. The end of the cannula was exteriorized through the skin for measurement of arterial blood pressure. Approximately 30 minutes after the rats regained consciousness, the experiment began. Mean blood pressure and heart rate were recorded 15 minutes prior to drug administration, at the time of administration, and 15, 30, 45 and 60 minutes following administration. Drug was administered at a variety of dosages. A statistically significant decrease in blood pressure of ˜42% was measured at the 45 and 60 minute time points for the 100 mg/kg and 30 mg/kg groups.

[3] = system: human platelet aggregation; experiment: Human platelet aggregation in platelet rich plasma, aggregometer (Example 8); format: cell-based; conditions: 5 min, PRP incubated 5 minutes at room temperature
Protocol: Substances which increase platelet cAMP levels are known to inhibit platelet aggregation. Blood was taken from human donors not on aspirin or taking any aspirin-containing substances (or other nonsteroidal anti-inflammatory drugs) for at least two weeks prior to donation. […] PRP was exposed only to plastic laboratory ware. All experiments were completed within 3 hours. PRP was incubated for 5 minutes at room temperature with enoximone prior to the addition of any aggregating agent. Aggregation was monitored by continuous recording of light transmittance in a Chrono-log dual-channel aggregometer (Chrono-log Corp.) in atotal volume of 0.5 ml PRP. Aggregating substances used were ADP (5 μM), collagen […] and arachidonic acid (2 μg/ml) (Chrono-log Corp.). Enoximone ([…]) inhibited platelet aggregation in a concentration dependent manner. […] It was also ruled out that enoximone was inhibiting aggregation by somehow inhibiting the metabolism of arachidonic acid as measured by HPLC and RIA.

normal human volunteers = experiment: Renal function and plasma volume in normal human volunteers (Example 4); conditions: single I.V. dose 2.5 mg/kg, then 200 mg t.i.d. for 5 days
perfused hindlimb = experiment: Arteriolar resistance, pump perfused hindlimb preparation (Example 6); format: in vivo, dog
Excerpt: The pump perfused hindlimb preparation permits the in vivo determination of the direct vascular effects of a compound. Dogs were anesthetized and allowed to respire sponatenously. The branchial artery and vein were cannulated and a catheter was passed down the left carotid artery into the left ventricle. […]

anesthetized dogs = experiment: Cardiorenal hemodynamics, i.v. infusion in anesthetized dogs (Example 3); format: in vivo, dog
[4] = system: spontaneously hypertensive rats; experiment: Anti-hypertensive activity, spontaneously hypertensive rats, single dose (Example 2); format: in vivo, rat; conditions: for blood pressure (mean arterial): vehicle 169+/−7.9
Protocol: Spontaneously hypertensive rats were divided into groups and treated with vehicle or a single dose of 10, 30 or 100 mg/kg of enoximone. Mean arterial blood pressure and heart rate were recorded before and at 15, 30, 45 and 60 minutes after treatment. Blood pressure decreased in all drug treatment groups.

[5] = system: subjects displaying chronic stable angina; experiment: Double blind placebo controlled cross over trial in chronic stable angina (Example 7); format: in vivo, human; conditions: single oral dose 75 mg
Protocol: A double blind placebo controlled cross over trial of enoximone was done with 20 subjects displaying chronic stable angina. Enoximone as a single oral dose (75 mg) was compared with placebo.

Mongrel dogs = experiment: Coronary blood flow, anesthetized mongrel dogs, electromagnetic flow probe (Example 5); format: in vivo, dog
Protocol: Mongrel dogs were anesthetized and given bolus injections of enoximone and coronary blood flow was measured using a Stratham electromagnetic flow probe, Model SP-7516-606-214, placed around the circumflex branch of the left coronary artery near its origin. The flow probe was connected to a Stratham Model SP2202 electromagnetic flow meter which was connected to a Grass Model 7P1 low level DC preamplifier. All recordings were made on a Grass Model 7B or […] polygraph.

In the case of interferon-α, the “patients achieving a stable state of remission” value [1] is given as “approximately 50%”.
In the case of `CCCc1nn(C)c2c(=O)[nH]c(-c3cc(S(=O)(=O)N4CCN(C)CC4)ccc3OCC)nc12` [Sildenafil, 5-[2-ethoxy-5-(4-methylpiperazin-1-ylsulphonyl)phenyl]-1-methyl-3-n-propyl-6,7-dihydro-1H-pyrazolo[4,3-d]pyrimidin-7-one], the “men with improved sexual function” value (men who suffer from ED) is listed as “about 70%” and the “inhibition of PDE-III” value (PDE-III) is listed as “negligible inhibition”.
For `CSc1ccc(C(=O)c2[nH]c(=O)[nH]c2C)cc1` [Enoximone, 1,3-Dihydro-4-methyl-5-[4-(methylthio)benzoyl]-2H-imidazol-2-one], the “decrease in blood pressure” value [2] was roughly 42%, the IC50 ([3]; ADP (5 μM), read-out: IC50 for ADP induced aggregation) was 20.9 µg/mL (≈ 84.2 µM) and the IC50 ([3]; arachidonic acid (2 μg/ml), read-out: IC50 for arachidonic acid induced aggregation) was 0.24 µg/mL (≈ 0.967 µM). The IC50 ([3]; collagen (1.0 mM), read-out: IC50 for collagen induced aggregation) was 36.3 µg/mL (≈ 146 µM), the renal function (normal human volunteers) was “no impairment” and the “decrease in hind limb perfusion pressure” value (perfused hindlimb; 0.3 mg/kg) was 11+/−2%. For the same molecule, the “decrease in hind limb perfusion pressure” value (perfused hindlimb; 3 mg/kg) was 25+/−2%, the blood pressure (anesthetized dogs; 30 μg/kg/min i.v. infusion) was “decreasing” and the cardiac contractile force (anesthetized dogs; 30 μg/kg/min i.v. infusion) was “increasing”. For the same molecule, the glomerular filtration (anesthetized dogs; 100 μg/kg/min i.v. infusion) was “unchanged”, the “increase in renal blood flow” value (anesthetized dogs; 100 μg/kg/min i.v. infusion) was 15-20% and the renal vascular resistance (anesthetized dogs; 100 μg/kg/min i.v. infusion) was “measurable decreases”. For the same molecule, the “blood pressure (mean arterial)” value ([4]; 45 minutes, 30 mg/kg, non-significant) was 151+/−9, the “blood pressure (mean arterial)” value ([4]; 60 minutes, 30 mg/kg, non-significant) was 142+/−8 and the “blood pressure (mean arterial)” value ([4]; 60 minutes, 100 mg/kg, significant) was 100+/−9.7. The “blood pressure, change in words” value ([4]; all drug treatment groups (10, 30 or 100 mg/kg)) was “decreased”, the heart rates ([4]; all groups (10, 30 or 100 mg/kg)) was “unchanged” and the “total exercise duration, mean difference versus placebo” value ([5]; significantly longer than placebo) was 22.8 s. The “time to onset of angina and development of significant ST-segment decrease, versus placebo” value ([5]; trends in favor of enoximone) was “similar”, the “increase in coronary blood flow” value (Mongrel dogs; bolus injection 0.1 mg/kg) was 12+/−2% and the “increase in coronary blood flow” value (Mongrel dogs; bolus injection 1 mg/kg) was 41+/−6%.
